ChEMBL document CHEMBL4024723, “Design, synthesis, and biological activity of novel tetrahydropyrazolopyridone derivatives as FXa inhibitors with potent anticoagulant activity” (Bioorg Med Chem, 2017)

Legend:
Plasma [1] = assay: Anticoagulant activity in human plasma assessed as concentration required to double activated partial thromboplastin time; assay type: functional
Plasma [2] = assay: Anticoagulant activity in human plasma assessed as concentration required to double prothrombin time; assay type: functional
Plasma [3] = assay: Anticoagulant activity in rabbit plasma assessed as concentration required to double activated partial thromboplastin time; assay type: functional, Oryctolagus cuniculus
Plasma [4] = assay: Anticoagulant activity in rabbit plasma assessed as concentration required to double prothrombin time; assay type: functional, Oryctolagus cuniculus
Coagulation factor X [5] = biological target: T1, Coagulation factor X (Homo sapiens, UniProt P00742); assay: Inhibition of human F10a assessed as decrease in p-nitroaniline cleavage from pefachrome F10a at 5 uM preincubated for 10 mins followed by substrate addition measured after 20 mins relative to control
T1 sequence (P00742 41-179 limits assumed): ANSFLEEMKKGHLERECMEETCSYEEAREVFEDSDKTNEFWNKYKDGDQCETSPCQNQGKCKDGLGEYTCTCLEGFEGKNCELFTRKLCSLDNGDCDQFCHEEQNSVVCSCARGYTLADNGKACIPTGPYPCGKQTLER
T1 sequence (P00742 235-488 limits assumed): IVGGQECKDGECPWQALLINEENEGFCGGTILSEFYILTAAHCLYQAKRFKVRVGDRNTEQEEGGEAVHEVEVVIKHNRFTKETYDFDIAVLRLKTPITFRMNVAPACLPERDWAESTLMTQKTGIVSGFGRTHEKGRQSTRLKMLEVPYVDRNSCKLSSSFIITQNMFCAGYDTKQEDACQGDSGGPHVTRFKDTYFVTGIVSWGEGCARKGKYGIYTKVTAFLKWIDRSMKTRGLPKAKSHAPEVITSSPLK

Coagulation factor X [6] = biological target: T1, Coagulation factor X; assay: Inhibition of human F10a assessed as decrease in p-nitroaniline cleavage from pefachrome F10a at 0.5 uM preincubated for 10 mins followed by substrate addition measured after 20 mins relative to control
Coagulation factor X [7] = biological target: T1, Coagulation factor X; assay: Inhibition of human F10a assessed as decrease in p-nitroaniline cleavage from pefachrome F10a preincubated for 10 mins followed by substrate addition measured after 20 mins
Rattus norvegicus = assay: Inhibition of thrombus formation in Sprague-Dawley rat at 10 mg/kg, po after 2 hrs relative to control; assay type: functional

Compound	2aPTT (Plasma [1])	2PT (Plasma [2])	2aPTT (Plasma [3])	2PT (Plasma [4])	inhibition (Coagulation factor X [5])	inhibition (Coagulation factor X [6])	IC50 (Coagulation factor X [7])	inhibition in vivo at 10 mg/kg (Rattus norvegicus)
COc1ccc(-n2nc(Cn3cnc(-c4ccncc4)n3)c3c2C(=O)N(c2ccc(N4CCCCC4=O)cc2)CC3)cc1	2.3 µM	1.6 µM	2.1 µM	1.9 µM	–	–	–	–
COc1ccc(-n2nc(C3=NC(C)CN3)c3c2C(=O)N(c2ccc(N4CCCCC4=O)cc2)CC3)cc1 (stereo not given)	14.6 µM	8.9 µM	17.1 µM	10 µM	–	–	–	–
COc1ccc(-n2nc(C3=NCCCN3)c3c2C(=O)N(c2ccc(N4CCCCC4=O)cc2)CC3)cc1	13.5 µM	9.4 µM	15.4 µM	10.8 µM	–	–	–	–
COc1ccc(-n2nc(Cn3cnc(-c4ccc(F)cc4)n3)c3c2C(=O)N(c2ccc(N4CCCCC4=O)cc2)CC3)cc1	2.3 µM	0.9 µM	3.1 µM	2.1 µM	70.3%	60.6%	–	–
COc1ccc(-n2nc(-n3cnnn3)c3c2C(=O)N(c2ccc(N4CCCCC4=O)cc2)CC3)cc1	7.3 µM	4.2 µM	8.2 µM	5.7 µM	–	–	–	–
COc1ccc(-n2nc(-n3cnnc3CN3CCOCC3)c3c2C(=O)N(c2ccc(N4CCCCC4=O)cc2)CC3)cc1	0.7 µM	0.5 µM	1.2 µM	0.9 µM	99%	94.5%	140 nM	98%
COc1ccc(-n2nc(Cn3ccnn3)c3c2C(=O)N(c2ccc(N4CCCCC4=O)cc2)CC3)cc1	3.7 µM	2.4 µM	3.9 µM	2.1 µM	–	–	–	–
COc1ccc(-n2nc(Cn3cc(C#N)nn3)c3c2C(=O)N(c2ccc(N4CCCCC4=O)cc2)CC3)cc1	1 µM	0.7 µM	1.5 µM	0.9 µM	94%	86.7%	360 nM	89%
COc1ccc(-c2ncn(Cc3nn(-c4ccc(OC)cc4)c4c3CCN(c3ccc(N5CCCCC5=O)cc3)C4=O)n2)cc1	1.1 µM	0.8 µM	1.7 µM	1.2 µM	76.4%	66.1%	–	–
COc1ccc(-n2nc(Cn3cnc(-c4cccnc4)n3)c3c2C(=O)N(c2ccc(N4CCCCC4=O)cc2)CC3)cc1	4.3 µM	2 µM	5.2 µM	3.2 µM	–	–	–	–
CCN(CC)Cc1nncn1-c1nn(-c2ccc(OC)cc2)c2c1CCN(c1ccc(N3CCCCC3=O)cc1)C2=O	9.6 µM	7.2 µM	11.5 µM	8 µM	–	–	–	–
COc1ccc(-n2nc(-n3cnnc3N)c3c2C(=O)N(c2ccc(N4CCCCC4=O)cc2)CC3)cc1	8.3 µM	4.1 µM	9.1 µM	5.9 µM	–	–	–	–
COc1ccc(-n2nc(C3=NCCCCN3)c3c2C(=O)N(c2ccc(N4CCCCC4=O)cc2)CC3)cc1	24.3 µM	10.9 µM	26.9 µM	12.1 µM	–	–	–	–
COc1ccc(-n2nc(Cn3nnc4ccccc43)c3c2C(=O)N(c2ccc(N4CCCCC4=O)cc2)CC3)cc1	31.6 µM	25.2 µM	39.1 µM	29.4 µM	–	–	–	–
COc1ccc(-c2nn(Cc3nn(-c4ccc(OC)cc4)c4c3CCN(c3ccc(N5CCCCC5=O)cc3)C4=O)c(=O)[nH]2)cc1	19.5 µM	17.7 µM	23.2 µM	19.3 µM	–	–	–	–
COc1ccc(-n2nc(Cn3cnc(-c4ccccc4)n3)c3c2C(=O)N(c2ccc(N4CCCCC4=O)cc2)CC3)cc1	3.6 µM	2.4 µM	5 µM	3.4 µM	–	–	–	–
COc1ccc(-n2nc(Cn3cnc(-c4ccc(Cl)cc4)n3)c3c2C(=O)N(c2ccc(N4CCCCC4=O)cc2)CC3)cc1	3.6 µM	1.9 µM	5 µM	3.5 µM	–	–	–	–
COc1ccc(-n2nc(Cn3cc(C(N)=O)nn3)c3c2C(=O)N(c2ccc(N4CCCCC4=O)cc2)CC3)cc1	3.1 µM	1.4 µM	5.2 µM	2.1 µM	–	–	–	–
COc1ccc(-n2nc(-n3cnnc3)c3c2C(=O)N(c2ccc(N4CCCCC4=O)cc2)CC3)cc1	10 µM	4.9 µM	13.7 µM	5.7 µM	–	–	–	–
COc1ccc(-n2nc(C3=NCCN3C)c3c2C(=O)N(c2ccc(N4CCCCC4=O)cc2)CC3)cc1	10.5 µM	8.8 µM	12 µM	9.6 µM	–	–	–	–
COc1ccc(-n2nc(C(N)=O)c3c2C(=O)N(c2ccc(N4CCCCC4=O)cc2)CC3)cc1 [APIXABAN]	0.9 µM	0.8 µM	1.4 µM	1 µM	–	–	–	95%
COc1ccc(-n2nc(Cn3nc(-c4ccccc4)[nH]c3=O)c3c2C(=O)N(c2ccc(N4CCCCC4=O)cc2)CC3)cc1	27.1 µM	11.7 µM	29.8 µM	12.4 µM	–	–	–	–
COc1ccc(-n2nc(-n3cnnc3CN3CCCC3)c3c2C(=O)N(c2ccc(N4CCCCC4=O)cc2)CC3)cc1	15.6 µM	7.6 µM	18 µM	8.4 µM	–	–	–	–
COc1ccc(-n2nc(-n3cnnc3C)c3c2C(=O)N(c2ccc(N4CCCCC4=O)cc2)CC3)cc1	2.8 µM	1.2 µM	3 µM	1.7 µM	65.2%	55.1%	–	–
COc1ccc(-n2nc(C3=NCCN3)c3c2C(=O)N(c2ccc(N4CCCCC4=O)cc2)CC3)cc1	11.8 µM	6.2 µM	12.5 µM	7.5 µM	–	–	–	–
